Test [1] addresses human A2b adenosine receptor (Homo sapiens (Human), UniProt P29275). Put plainly: A2B antagonism in cAMP cell-based assay (LANCE cAMP, HEK293 cells, 600 nM adenosine). The conditions noted are these: for pIC50: values marked *: cAMP cell-based assay.
Test [2] has as its target human A2a adenosine receptor (Homo sapiens (Human), UniProt P29274). Put plainly: A2a receptor affinity radioligand binding assay ([3H] SCH58261, membranes from HEK293 or CHO cells). Particulars: unstarred values: radioligand binding. The procedure, abridged: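 Displacement of tritiated SCH58261 (working dilution 4 nM) from recombinant human A2a receptor membranes (HEK293 or CHO), 60 min at room temperature in Tris pH 7.4/MgCl2 buffer after 15–30 min compound preincubation. Scintillation counting after filtration; normalized percent effect fitted 4-parameter logistic for IC50.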

pIC50: −log10 of the molar value.

Sequence of human A2a adenosine receptor (P29274 whole entry): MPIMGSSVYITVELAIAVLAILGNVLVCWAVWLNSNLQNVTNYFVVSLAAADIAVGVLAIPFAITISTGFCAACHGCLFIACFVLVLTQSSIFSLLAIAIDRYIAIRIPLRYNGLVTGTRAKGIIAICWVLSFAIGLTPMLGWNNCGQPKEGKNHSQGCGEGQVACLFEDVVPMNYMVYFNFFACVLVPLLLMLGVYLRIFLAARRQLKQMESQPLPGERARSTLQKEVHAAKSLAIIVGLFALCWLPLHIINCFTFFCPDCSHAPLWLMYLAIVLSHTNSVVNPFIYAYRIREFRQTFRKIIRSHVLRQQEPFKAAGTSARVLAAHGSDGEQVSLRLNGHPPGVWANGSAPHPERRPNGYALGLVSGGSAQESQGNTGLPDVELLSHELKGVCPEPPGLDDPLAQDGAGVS
Sequence of human A2b adenosine receptor (P29275 whole entry): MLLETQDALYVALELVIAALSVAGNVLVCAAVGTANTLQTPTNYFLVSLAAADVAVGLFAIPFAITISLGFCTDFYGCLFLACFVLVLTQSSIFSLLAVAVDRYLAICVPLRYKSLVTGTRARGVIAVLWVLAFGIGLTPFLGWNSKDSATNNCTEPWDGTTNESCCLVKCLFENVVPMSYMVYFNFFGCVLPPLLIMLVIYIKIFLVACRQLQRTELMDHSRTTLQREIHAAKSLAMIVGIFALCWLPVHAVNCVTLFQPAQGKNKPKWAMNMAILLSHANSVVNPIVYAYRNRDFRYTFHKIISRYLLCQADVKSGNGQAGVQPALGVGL

Turning to `COc1cccc2c1nc(N)n1nc([C@@H]3CCCN(c4cnn5c(C)cccc45)C3)nc21` [Example 19, (R)-7-methoxy-2-(1-(7-methylpyrazolo[1,5-a]pyridin-3-yl)piperidin-3-yl)-[1,2,4]triazolo[1,5-c]quinazolin-5-amine], the pIC50 is 7.15 in test [1] and 8.89 in test [2].

Regarding `COc1cccc2c1nc(N)n1nc([C@@H]3CCCN(c4cnn5ncccc45)C3)nc21` [Example 12, (R)-7-methoxy-2-(1-(pyrazolo[1,5-b]pyridazin-3-yl)-piperidin-3-yl)-[1,2,4]triazolo[1,5-c]quinazolin-5-amine], the pIC50 in test [1] was 6.98; in test [2], 9.22.

As to `CC[C@@H]1CC[C@@H](c2nc3c4cccc(OC)c4nc(N)n3n2)CN1c1cnn(CC(C)(C)O)c1` [Example 216A, 1-(4-((2R,5R)-5-(5-amino-7-methoxy-[1,2,4]triazolo[1,5-c]quinazolin-2-yl)-2-ethylpiperidin-1-yl)-1H-pyrazol-1-yl)-2-methylpropan-2-ol], the figures for the pIC50 in test [1] and in test [2] were 6.19 and 7.47, respectively.

Turning to `COc1ccc2c(c1)nc(N)n1nc([C@@H]3C[C@H](C)CN(c4cnn(C(C)(C)CO)c4)C3)nc21` (single isomer, unassigned) [Example 222A], the figures for the pIC50 in test [1] and in test [2] were 6.09 and 8.88, respectively.

For the compound `COc1ccc2c(c1)nc(N)n1nc([C@H]3C[C@@H](C)CN(c4cnn(C(C)(C)CO)c4)C3)nc21` [Example 222C, 2-(4-((3S,5R)-3-(5-amino-8-methoxy-[1,2,4]triazolo[1,5-c]quinazolin-2-yl)-5-methylpiperidin-1-yl)-1H-pyrazol-1-yl)-2-methylpropan-1-ol], the pIC50 in test [1] was 7.87; in test [2] it was 9.40.

Turning to `COc1cccc2c1nc(N)n1nc([C@@H]3CCCN(c4ccc(=O)n(C5CC5)c4)C3)nc21` [Example 95, (R)-5-(3-(5-amino-7-methoxy-[1,2,4]triazolo[1,5-c]quinazolin-2-yl)piperidin-1-yl)-1-cyclopropylpyridin-2(1H)-one], the pIC50 is 7.23 in test [1] and 8.64 in test [2].

Regarding `COc1cccc2c1nc(N)n1nc([C@@H]3CCCN(c4ccn(C(C)C)c(=O)c4)C3)nc21` [Example 89, (R)-4-(3-(5-amino-7-methoxy-[1,2,4]triazolo[1,5-c]quinazolin-2-yl)piperidin-1-yl)-1-isopropylpyridin-2(1H)-one], the values for the pIC50 in test [1] and in test [2] were 6.20 and 8.82, respectively.

Turning to `COc1cccc2c1nc(N)n1nc([C@@H]3CCCN(c4nnn(C)c4C)C3)nc21` [Example 79, (R)-2-(1-(1,5-dimethyl-1H-1,2,3-triazol-4-yl)piperidin-3-yl)-7-methoxy-[1,2,4]triazolo[1,5-c]quinazolin-5-amine], the negative-log IC50 (pIC50) in test [1] is 6.84; in test [2], 8.80.

With `COc1cccc2c1nc(N)n1nc([C@@H]3CCCN(c4cc(C(F)(F)F)nn4C)C3)nc21` [Example 77, (R)-7-methoxy-2-(1-(1-methyl-3-(trifluoromethyl)-1H-pyrazol-5-yl)piperidin-3-yl)-[1,2,4]triazolo[1,5-c]quinazolin-5-amine], the figures for the pIC50 in test [1] and in test [2] were 6.27 and 9.10, respectively.

Take `COc1cccc2c1nc(N)n1nc(C3CN(c4cnn(CC(F)(F)F)c4)CC(F)(F)C3)nc21` (single isomer, unassigned) [Example 155A]: the pIC50 was 5.88 in test [1] and 7.92 in test [2].

Turning to `COc1cccc2c1nc(N)n1nc([C@@H]3CCCN(c4cnn([C@H]5CC[C@H](O)C5)c4)C3)nc21` [Example 29, (1S,3S)-3-(4-((R)-3-(5-amino-7-methoxy-[1,2,4]triazolo[1,5-c]quinazolin-2-yl)piperidin-1-yl)-1H-pyrazol-1-yl)cyclopentan-1-ol], the figures for the pIC50 in test [1] and in test [2] were 7.61 and 8.89, respectively.

For the compound `CC[C@@H]1CC[C@H](c2nc3c4cccc(OC)c4nc(N)n3n2)CN1c1cnn(CC(C)(C)O)c1` (single isomer, unassigned) [Example 216D], the results for the pIC50 in test [1] and in test [2] were 6.31 and 8.62, respectively.

As for `COc1cccc2c1nc(N)n1nc([C@@H]3CCCN(c4ncc(F)cn4)C3)nc21` [Example 110, (R)-2-(1-(5-fluoropyrimidin-2-yl)piperidin-3-yl)-7-methoxy-[1,2,4]triazolo[1,5-c]quinazolin-5-amine], the pIC50 is 6.14 in test [1] and 8.66 in test [2].

For the compound `COc1cccc2c1nc(N)n1nc(C3CCC(C)N(c4cnn(C5CC5)c4)C3)nc21` (single isomer, unassigned) [Example 141D], the results for the pIC50 in test [1] and in test [2] were 5.78 and 8.51, respectively.

For the compound `COc1cccc2c1nc(N)n1nc(C3CCC(C)N(c4cnn(C5CC5)c4)C3)nc21` (single isomer, unassigned) [Example 141B], the pIC50 in test [1] was 5.58; in test [2], 7.55.

In the case of `COc1cccc2c1nc(N)n1nc(C3CN(c4cnn(C5CC5)c4)CC(F)(F)C3)nc21` (single isomer, unassigned) [Example 154B], the “*A2B cAMP % inh. @ 10000 nM” value in test [1] (@ 10000 nM, marked *) turned out to be 13% inh. @ 10000 nM*. Also, the pIC50 in test [2] was 7.76.

Turning to `COc1cccc2c1nc(N)n1nc([C@@H]3CCCN(c4cnn(C(C)(C)C)c4)C3)nc21` [Example 6, (R)-2-(1-(1-(tert-butyl)-1H-pyrazol-4-yl)piperidin-3-yl)-7-methoxy-[1,2,4]triazolo[1,5-c]quinazolin-5-amine], the pIC50 was 7.52 in test [1] and 8.89 in test [2].

For the compound `CCn1ncc(N2CCC[C@@H](c3nc4c5cccc(OC)c5nc(N)n4n3)C2)c1C` [Example 15, (R)-2-(1-(1-ethyl-5-methyl-1H-pyrazol-4-yl)piperidin-3-yl)-7-methoxy-[1,2,4]triazolo[1,5-c]quinazolin-5-amine], the pIC50 in test [1] was 6.83; in test [2] it was 9.30.

With `COc1cccc2c1nc(N)n1nc([C@@H]3CCCN(c4cnn(C(C)(C)C(=O)O)c4)C3)nc21` [Example 28, (R)-2-(4-(3-(5-amino-7-methoxy-[1,2,4]triazolo[1,5-c]quinazolin-2-yl)piperidin-1-yl)-1H-pyrazol-1-yl)-2-methylpropanoic acid], the pIC50 in test [1] is 7.32; in test [2], 8.20.

Consider `COc1cccc2c1nc(N)n1nc([C@@H]3CCCN(c4cnn(C(F)F)c4)C3)nc21` [Example 3, (R)-2-(1-(1-(difluoromethyl)-1H-pyrazol-4-yl)piperidin-3-yl)-7-methoxy-[1,2,4]triazolo[1,5-c]quinazolin-5-amine], for which the pIC50 in test [1] is 7.37; in test [2], 8.89.

As to `COc1cccc2c1nc(N)n1nc([C@@H]3CCCN(c4cnn(C5CC5)c4)C3)nc21` [Example 7, (R)-2-(1-(1-cyclopropyl-1H-pyrazol-4-yl)piperidin-3-yl)-7-methoxy-[1,2,4]triazolo[1,5-c]quinazolin-5-amine], the pIC50 in test [1] is 7.41; in test [2], 8.85.

`COc1cccc2c1nc(N)n1nc([C@@H]3CCCN(c4ccc(C(F)(F)F)nc4)C3)nc21` [Example 112, (R)-7-methoxy-2-(1-(6-(trifluoromethyl)pyridin-3-yl)piperidin-3-yl)-[1,2,4]triazolo[1,5-c]quinazolin-5-amine]: the pIC50 is 6.67 in test [1] and 8.46 in test [2].

As for `COc1ccc2c(c1)nc(N)n1nc([C@@H]3CC[C@H](C)N(c4cnn(C(C)(C)CO)c4)C3)nc21` [Example 214, 2-(4-((2S,5R)-5-(5-amino-8-methoxy-[1,2,4]triazolo[1,5-c]quinazolin-2-yl)-2-methylpiperidin-1-yl)-1H-pyrazol-1-yl)-2-methylpropan-1-ol], the pIC50 in test [1] is 8.55; in test [2] it was 9.70.

Take `COc1ccc2c(c1)nc(N)n1nc([C@H]3C[C@@H](C)CN(c4cn([C@@H](C)[C@H](C)O)nc4C)C3)nc21` [Example 219A, (2S,3S)-3-(4-((3S,5R)-3-(5-amino-8-methoxy-[1,2,4]triazolo[1,5-c]quinazolin-2-yl)-5-methylpiperidin-1-yl)-3-methyl-1H-pyrazol-1-yl)butan-2-ol]: the values for the pIC50 in test [1] and in test [2] were 5.70 and 9.30, respectively.

As to `COc1cccc2c1nc(N)n1nc([C@@H]3CCCN(c4cnn(CCF)c4)C3)nc21` [Example 14, (R)-2-(1-(1-(2-fluoroethyl)-1H-pyrazol-4-yl)piperidin-3-yl)-7-methoxy-[1,2,4]triazolo[1,5-c]quinazolin-5-amine], the pIC50 in test [1] is 7.51; in test [2], 9.15.

For `COc1cccc2c1nc(N)n1nc(C3CN(c4cnn(CC(C)(C)O)c4)CC(F)(F)C3)nc21` (single isomer, unassigned) [Example 156B, (R or S)-1-(4-(5-(5-amino-7-methoxy-[1,2,4]triazolo[1,5-c]quinazolin-2-yl)-3,3-difluoropiperidin-1-yl)-1H-pyrazol-1-yl)-2-methylpropan-2-ol], the pIC50 was 5.86 in test [1] and 8.66 in test [2].
